# Measurements: article PMC6753678, “Fueling Open Innovation for Malaria Transmission-Blocking Drugs: Hundreds of Molecules Targeting Early Parasite Mosquito Stages” (Frontiers in Microbiology, 2019)
# Read-outs that look alike come from different tables or passages of the source.
# How the values were obtained:
# HepG2 cells [1] = test: HepG2 cytotoxicity assay
# Outline: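 HepG2 cells, 2,500 per well in MEM with 10% FBS and 1% NEAA, exposed to compounds for 48 h at 37°C, 5% CO2. Viability read by fluorescence; percent inhibition relative to 50 μM doxorubicin and DMSO controls.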
# [2] = tested on: P. falciparum late stage (stages IV-V) gametocytes; set-up: method as in Almela et al 2016; details: ref Almela et al 2016, read-out: Pf GCT ATP IC50, cited from earlier work
# [3] = tested on: P. falciparum late stage (stages IV-V) gametocytes; test: P. falciparum late stage gametocyte ATP depletion assay (Pf GC-ATP); details: 1: YES; 0: NO; >10-fold selectivity over cytotoxicity
# HepG2 cells [4] = details: cited from earlier work; for HepG2 cytoxicity (Pf GCT ATP screen) / HepG2 cytoxicity: ref Almela et al 2016
# [5] = tested on: 3D7-strain P. falciparum asexual parasites; test: P. falciparum asexual growth inhibition assay (Pf GIA); type: cell-based, Plasmodium falciparum; details: dose response confirmation; read-out: Pf asexual growth inhibition assays IC50
# Outline: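 LDH readout: absorbance at 650 nm after 10 min at room temperature with lactate/APAD/NBT/diaphorase mix on thawed plates. Cultures (0.25% parasitemia, 2% hematocrit) were treated 72 h at 37°C in low-oxygen gas. Inhibition was normalised to 50 μM chloroquine and DMSO; n=3 biological replicates.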
# [6] = tested on: P. berghei ookinete development; details: for % inhibition, Replicate A / % inhibition, Replicate B: primary screen at 1 μM
# [7] = tested on: P. falciparum female gametocytes; set-up: method as in Miguel-Blanco et al 2017; details: ref Miguel-Blanco et al 2017, read-out: Pf FGAA IC50, cited from earlier work
# [8] = tested on: P. falciparum female gametocytes; test: P. falciparum female gametogenesis assay (Pf FGAA); details: 1: YES; 0: NO
# [9] = HepG2 cytotoxicity unified across screens, >25 set to 25.00
# [10] = P. falciparum late stage gametocyte ATP assay, TCAMS screen
# [11] = read-out: Pb ODA IC50, this manuscript
# [12] = read-out: Pb Ookinete development assay IC50, dose response confirmation
# [13] = P. falciparum late stage gametocyte ATP assay
# [14] = HepG2 data listed with Pf GCT ATP screen
# [15] = reported with the Pf GCT ATP screen
Structure (SMILES),Unified cytotox (HepG2 cells [1]; [9]),"IC50 [2, 10]",Is compound selective in assay? Pf GC-ATP active? [3],also measured
CN(C)CCCn1c(N)c(-c2nc3ccccc3[nH]2)c2nc(C#N)c(C#N)nc21 [TCMDC-123729],6.93 µM,0.2 µM,1 (1: YES),–
c1ccc(CSC2=NNC(c3ccccn3)S2)cc1 (stereo not drawn) [TCMDC-123769],–,–,–,IC50 ([2]; TCAMS library screen): 7.98 µM; HepG2 cytoxicity (Pf GCT ATP screen) (HepG2 cells [4]; HepG2 value reported with Pf GCT ATP screen): >25 µM
Clc1ccc(Nc2nc(-c3ccccn3)cs2)nc1 [TCMDC-123885],–,–,–,"IC50 [5]: 1.6 µM; % inhibition, Replicate A [6]: -3.14%; % inhibition, Replicate B [6]: 71.58%; IC50 [6, 11]: 3.7 µM; IC50 [6, 12]: 3.7 µM; IC50 [2]: 0.67 µM; HepG2 cytoxicity (Pf GCT ATP screen) (HepG2 cells [4]; HepG2): 20.8 µM"
O=C(Nc1ccc2c(c1)CCCN2S(=O)(=O)c1cccs1)c1cc([N+](=O)[O-])ccc1Cl [TCMDC-125153],–,–,–,"IC50 [2, 13]: 2.66 µM; HepG2 cytoxicity (HepG2 cells [4]; [14]): >25 µM"
Cc1cc(NCCCCCCNc2cc(C)nc3c(C)cccc23)c2cccc(C)c2n1.Cl [TCMDC-125702],–,–,–,"IC50 [2, 13]: 3.32 µM; HepG2 cytoxicity (HepG2 cells [4]; [14]): >25 µM"
Br.Cc1ccnc(Nc2nc(-c3ccccn3)cs2)c1 [TCMDC-125769],–,–,–,"IC50 [2, 13]: 0.0433 µM"
Cc1ccc(Nc2nc(-c3ccccn3)cs2)nc1 [TCMDC-125854],–,–,–,Unified cytotox (HepG2 cells [1]; HepG2 cytotoxicity unified across the three screens): 33.07 µM; IC50 ([2]; TCAMS screen comparison): 0.16 µM; IC50 ([7]; TCAMS screen comparison): 0.0273 µM
CCN(CC)/C(=N/C(=N)Nc1ccc(Cl)c(Cl)c1)NCCCCCCN/C(=N\C(=N)Nc1ccc(Cl)c(Cl)c1)N(CC)CC [TCMDC-131808],–,–,–,"IC50 [2, 13]: 3.44 µM; HepG2 cytoxicity (HepG2 cells [4]; [14]): >25 µM"
CCC1=C(C[C@H]2NCCc3cc(OC)c(OC)cc32)C[C@H]2c3cc(OC)c(OC)cc3CCN2C1.Cl [TCMDC-131825],–,–,–,"IC50 [5]: 0.127 µM; % inhibition, Replicate A [6]: 90.26%; % inhibition, Replicate B [6]: 99.18%; IC50 [6, 11]: 0.37 µM; IC50 [6, 12]: 0.367 µM; IC50 [2]: 0.3 µM; HepG2 cytoxicity (Pf GCT ATP screen) (HepG2 cells [4]; HepG2): >25 µM"
Nc1c2ccccc2nc2ccc(-c3ccccc3)cc12 [TCMDC-132030],3.30 µM,0.49 µM,0 (0: NO),–
CCc1c(CCNCCCCCCNCCc2ccc(Br)cc2)ccc(OC)c1OC.Cl [TCMDC-132045],3.20 µM,0.22 µM,1 (1: YES),–
CCc1c(CCNCCCCCCNCCc2ccc(OC)c(OC)c2C)ccc(OC)c1OC.Cl [TCMDC-132051],7.75 µM,0.77 µM,1 (1: YES),–
CCc1c(CCNCCc2cccc(CCNCCc3ccc(OC)c(OC)c3CC)c2)ccc(OC)c1OC.Cl [TCMDC-132056],4.11 µM,0.55 µM,0 (0: NO),–
CCc1c(CCNCCCC(C)CCNCCc2ccc(OC)c(OC)c2CC)ccc(OC)c1OC.Cl (stereo not drawn) [TCMDC-132065],6.00 µM,0.45 µM,1 (1: YES),–
COc1cccc(CCc2c(CCNCCCCCCNCCc3ccccc3)ccc(OC)c2OC)c1.Cl [TCMDC-132105],7.70 µM,0.18 µM,1 (1: YES),–
Cc1cc(-c2cccc(CNC3CCCC3)c2)ccc1S(=O)(=O)NCCN1CCCC1.O=C(O)C(F)(F)F [TCMDC-132279],7.50 µM,1.24 µM,0 (0: NO),–
O=C(O)C(F)(F)F.O=S(=O)(NCCN1CCCC1)c1cccc(-c2ccc(CNCc3ccc(F)cc3)cc2)c1 [TCMDC-132289],7.40 µM,2.69 µM,0 (0: NO),–

Structure (SMILES),Unified cytotox (HepG2 cells [1]; [9]),"IC50 [2, 10]",Is compound selective in assay? Pf GC-ATP active? [3],also measured
COc1ccc(CNCc2ccc(F)cc2)cc1-c1ccc(S(=O)(=O)NCCN2CCCC2)cc1.O=C(O)C(F)(F)F [TCMDC-132294],6.50 µM,1.21 µM,0 (0: NO),–
COc1ccc(CNCc2ccc(F)cc2)cc1-c1ccc(OC)c(S(=O)(=O)NCCN2CCCC2)c1.O=C(O)C(F)(F)F [TCMDC-132295],11.40 µM,0.72 µM,1 (1: YES),–
COc1ccc(CNCCc2cccs2)cc1-c1cccc(S(=O)(=O)NCCN2CCCC2)c1.O=C(O)C(F)(F)F [TCMDC-132479],11.40 µM,1.68 µM,0 (0: NO),–
O=C(Nc1ccc(N2CCNCC2)cc1)c1ccn2ncc(-c3cccc(Cl)c3)c2n1 [TCMDC-132663],22.22 µM,3.5 µM,0 (0: NO),–
NCc1ccc(CNCc2cccc(-c3ccc(-c4nc5ccccc5[nH]4)cc3)c2)cc1.O=C(O)C(F)(F)F [TCMDC-132815],21.82 µM,0.48 µM,1 (1: YES),–
O=C(O)C(F)(F)F.c1cc(CNCCN2CCNCC2)cc(-c2cccc(-c3nc4ccccc4[nH]3)c2)c1 [TCMDC-132859],19.30 µM,0.71 µM,1 (1: YES),–
Fc1ccc2[nH]c(-c3cccc(-c4cccc(CNCCN5CCNCC5)c4)c3)nc2c1.O=C(O)C(F)(F)F [TCMDC-132860],19.63 µM,0.74 µM,1 (1: YES),–
Fc1ccc2[nH]c(-c3cccc(-c4ccc(CNCCN5CCNCC5)cc4)c3)nc2c1.O=C(O)C(F)(F)F [TCMDC-132863],24.16 µM,1.45 µM,1 (1: YES),–
Cc1cccc2nc(-c3ccc(-c4cccc(CNCCN5CCNCC5)c4)cc3)[nH]c12 [TCMDC-132867],13.40 µM,0.84 µM,1 (1: YES),–
Cc1cccc2nc(-c3cccc(-c4cccc(CNCCN5CCNCC5)c4)c3)[nH]c12.O=C(O)C(F)(F)F [TCMDC-132873],7.76 µM,0.5 µM,1 (1: YES),–
COc1ccc(-c2cc(-c3ccc(S(C)(=O)=O)cc3)cnc2N)cn1 [TCMDC-133351],–,1.18 µM,–,–
CN1CCN(c2nsc3ccc(-c4ccc(NC(=O)Nc5cc(C(F)(F)F)ccc5F)cc4)cc23)CC1.O=C(O)C(F)(F)F [TCMDC-133435],6.40 µM,7.52 µM,0 (0: NO),–
Nc1ncc(-c2ccc3nccc(-c4ccncc4)c3c2)cc1S(=O)(=O)N1CCOCC1 [TCMDC-134180],25.00 µM,6.9 µM,–,HepG2 cytoxicity (HepG2 cells [4]; [15]): >25 µM
COc1ccc2nc(-c3cccc(C)n3)nc(Nc3ccncc3)c2c1 [TCMDC-134670],25.00 µM,2.51 µM,–,HepG2 cytoxicity (HepG2 cells [4]; [15]): >25 µM
Cc1cccc(-c2nc(Nc3ccncc3)c3cc(N(C)C)ccc3n2)n1 [TCMDC-135308],25.00 µM,2.66 µM,–,HepG2 cytoxicity (HepG2 cells [4]; [15]): >25 µM
Cc1cc(F)ccc1-c1nc(NCCCNCCc2ccccc2)nc2c1ccc(=O)n2-c1c(F)cccc1F.O=C(O)C(F)(F)F [TCMDC-141804],–,–,–,"IC50 [5]: 0.021 µM; HepG2 cytoxicity (Pb ODA, this manuscript) (HepG2 cells [1]; HepG2, this manuscript): 11.48 µM; Unified cytotox (HepG2 cells [1]; HepG2 values of the three screens unified): 12.04 µM; IC50 (HepG2 cells [1]; read-out: HepG2 cytotoxicity assay IC50, dose response confirmation): 11.5 µM; Is compound selective in assay? Pb ODA active? ([6]; 1: YES, 0: NO): 1 (1: YES); % inhibition, Replicate A [6]: 63.85%; % inhibition, Replicate B [6]: 85.47%; IC50 [6, 11]: 0.72 µM; IC50 [6, 12]: 0.725 µM; IC50 [7]: 3.61 µM; HepG2 cytoxicity (Pf FGAA screen) (HepG2 cells [4]; HepG2, ref Miguel-Blanco et al 2017): 12.59 µM; Is compound selective in assay? Pf FGAA active? [8]: 0 (0: NO)"
